In ChEMBL document CHEMBL1287692, “Structure-based design, synthesis and A-site rRNA co-crystal complexes of novel amphiphilic aminoglycoside antibiotics with new binding modes: a synergistic hydrophobic effect against resistant bacteria” (2010):
Converted amounts (≈) assume the structure as drawn.

Columns and labels:
Format in all cases: functional
Escherichia coli [1] = experiment: Antibacterial activity against Escherichia coli ATCC 25922
Staphylococcus aureus [2] = experiment: Antibacterial activity against Staphylococcus aureus ATCC 13709
Escherichia coli [3] = experiment: Antibacterial activity against Escherichia coli 0157:H07
Escherichia coli [4] = experiment: Antibacterial activity against vancomycin-, ciprofloxacin-, gentamicin-sensitive Escherichia coli 1269640
Escherichia coli [5] = experiment: Antibacterial activity against vancomycin-, ciprofloxacin-, gentamicin-resistant Escherichia coli 1269620
Escherichia coli [6] = experiment: Antibacterial activity against vancomycin-, ciprofloxacin-, gentamicin-resistant Escherichia coli 1269621
Escherichia coli [7] = experiment: Antibacterial activity against vancomycin-, ciprofloxacin-, gentamicin-resistant Escherichia coli 1269652
Escherichia coli [8] = experiment: Antibacterial activity against vancomycin-, ciprofloxacin-, gentamicin-resistant Escherichia coli 1269653
Staphylococcus aureus [9] = experiment: Antibacterial activity against Staphylococcus aureus ATCC […]
Staphylococcus aureus [10] = experiment: Antibacterial activity against vancomycin-, ciprofloxacin-, gentamicin-resistant Staphylococcus aureus 1269615
Staphylococcus aureus [11] = experiment: Antibacterial activity against vancomycin-intermediate and ciprofloxacin-, gentamicin-resistant Staphylococcus aureus 1269616
Staphylococcus aureus [12] = experiment: Antibacterial activity against vancomycin-, ciprofloxacin-, gentamicin-resistant Staphylococcus aureus 1269617
Staphylococcus aureus [13] = experiment: Antibacterial activity against vancomycin-intermediate and ciprofloxacin-, gentamicin-resistant Staphylococcus aureus 1269618
Staphylococcus aureus [14] = experiment: Antibacterial activity against vancomycin-sensitive and oxymycin-, ciprofloxacin-, gentamicin-resistant Staphylococcus aureus 9269619
Staphylococcus aureus [15] = experiment: Antibacterial activity against oxymycin-sensitive Staphylococcus aureus 1269669
Staphylococcus aureus [16] = experiment: Antibacterial activity against oxymycin-sensitive Staphylococcus aureus 1269670
Staphylococcus capitis = experiment: Antibacterial activity against Staphylococcus capitis 1269682
[17] = tested on: Staphylococcus epidermidis; experiment: Antibacterial activity against Staphylococcus epidermidis 1269663
[18] = tested on: Staphylococcus epidermidis; experiment: Antibacterial activity against oxymycin-, gentamicin-, levofloxacin-resistant Staphylococcus epidermidis 1269675
[19] = tested on: Staphylococcus epidermidis; experiment: Antibacterial activity against oxymycin-, gentamicin-, levofloxacin-resistant Staphylococcus epidermidis 1269676
[20] = tested on: Staphylococcus epidermidis; experiment: Antibacterial activity against oxymycin and gentamicin-resistant Staphylococcus epidermidis 1269677
[21] = tested on: Staphylococcus epidermidis; experiment: Antibacterial activity against oxymycin-, gentamicin-, levofloxacin-resistant Staphylococcus epidermidis 1269680
Staphylococcus warneri = experiment: Antibacterial activity against Staphylococcus warneri 1269686

Row | Structure (SMILES) | MIC (Escherichia coli [1]) [µg/mL] | MIC (Staphylococcus aureus [2]) [µg/mL] | MIC (Escherichia coli [3]) [µg/mL] | MIC (Escherichia coli [4]) [µg/mL] | MIC (Escherichia coli [5]) [µg/mL] | MIC (Escherichia coli [6]) [µg/mL] | MIC (Escherichia coli [7]) [µg/mL] | MIC (Escherichia coli [8]) [µg/mL] | MIC (Staphylococcus aureus [9]) [µg/mL] | MIC (Staphylococcus aureus [10]) [µg/mL] | MIC (Staphylococcus aureus [11]) [µg/mL] | MIC (Staphylococcus aureus [12]) [µg/mL] | MIC (Staphylococcus aureus [13]) [µg/mL] | MIC (Staphylococcus aureus [14]) [µg/mL] | MIC (Staphylococcus aureus [15]) [µg/mL] | MIC (Staphylococcus aureus [16]) [µg/mL] | MIC (Staphylococcus capitis) [µg/mL] | MIC [17] [µg/mL] | MIC [18] [µg/mL] | MIC [19] [µg/mL] | other results
1 | NCC[C@H](O)C(=O)N[C@@H]1C[C@H](N)[C@@H](O[C@H]2O[C@H](CO)CC[C@H]2N)[C@H](O[C@@H]2O[C@H](CO)[C@@H](O[C@H]3O[C@@H](CN)[C@@H](O)[C@H](O)[C@H]3N)[C@H]2OCCNCCc2ccccc2)[C@H]1O | 8 (≈ 9.62 µM) | 0.6 (≈ 0.721 µM) | 1 (≈ 1.2 µM) | 8 (≈ 9.62 µM) | 4 (≈ 4.81 µM) | 4 (≈ 4.81 µM) | 16 (≈ 19.2 µM) | 8 (≈ 9.62 µM) | > 0.12 | 0.25 (≈ 0.3 µM) | 0.5 (≈ 0.601 µM) | 0.25 (≈ 0.3 µM) | 0.5 (≈ 0.601 µM) | 1 (≈ 1.2 µM) | 0.25 (≈ 0.3 µM) | 0.25 (≈ 0.3 µM) | < 0.12 | < 0.12 | < 0.12 | < 0.12 | MIC [20]: < 0.12 µg/mL; MIC [21]: < 0.12 µg/mL; MIC (Staphylococcus warneri): < 0.12 µg/mL
2 | NC[C@@H]1O[C@H](O[C@H]2[C@@H](OCCNCCc3ccccc3)[C@H](O[C@@H]3[C@@H](O)[C@H](N)C[C@H](N)[C@H]3O[C@H]3O[C@H](CO)[C@@H](O)[C@H](O)[C@H]3N)O[C@@H]2CO)[C@H](N)[C@@H](O)[C@@H]1O | 3 (≈ 3.93 µM) | 0.3 (≈ 0.393 µM) | – | – | – | – | – | – | – | – | – | – | – | – | – | – | – | – | – | – | –
3 | NCC[C@H](O)C(=O)N[C@@H]1C[C@H](N)[C@@H](O[C@H]2O[C@H](CN)[C@@H](O)[C@H](O)[C@H]2O)[C@H](O)[C@H]1O[C@H]1O[C@H](CO)[C@@H](O)[C@H](N)[C@H]1O [AMIKACIN] | 2 (≈ 3.42 µM) | – | 1 (≈ 1.71 µM) | 8 (≈ 13.7 µM) | 2 (≈ 3.42 µM) | 2 (≈ 3.42 µM) | 64 (≈ 109 µM) | 8 (≈ 13.7 µM) | 2 (≈ 3.42 µM) | 16 (≈ 27.3 µM) | 16 (≈ 27.3 µM) | 8 (≈ 13.7 µM) | 16 (≈ 27.3 µM) | 16 (≈ 27.3 µM) | 2 (≈ 3.42 µM) | 1 (≈ 1.71 µM) | 0.5 (≈ 0.854 µM) | 0.8 (≈ 1.37 µM) | 8 (≈ 13.7 µM) | 4 (≈ 6.83 µM) | MIC [20]: 4 µg/mL (≈ 6.83 µM); MIC [21]: 8 µg/mL (≈ 13.7 µM); MIC (Staphylococcus warneri): < 0.25 µg/mL
4 | NC[C@@H]1O[C@H](O[C@H]2[C@@H](O)[C@H](O[C@@H]3[C@@H](O)[C@H](N)C[C@H](N)[C@H]3O[C@H]3O[C@H](CN)[C@@H](O)[C@H](O)[C@H]3N)O[C@@H]2CO)[C@H](N)[C@@H](O)[C@@H]1O [FRAMYCETIN] | 3 (≈ 4.88 µM) | 1 (≈ 1.63 µM) | – | – | – | – | – | – | – | – | – | – | – | – | – | – | – | – | – | – | –
5 | CN[C@@H]1[C@@H](O)[C@@H](O[C@@H]2[C@@H](O)[C@H](O[C@H]3O[C@H]([C@@H](C)NC)CC[C@H]3N)[C@@H](N)C[C@H]2N)OC[C@]1(C)O [GENTAMICIN C1] | 1 (≈ 2.09 µM) | – | 0.5 (≈ 1.05 µM) | 4 (≈ 8.38 µM) | 64 (≈ 134 µM) | 64 (≈ 134 µM) | > 128 | > 128 | 0.5 (≈ 1.05 µM) | 32 (≈ 67 µM) | 64 (≈ 134 µM) | 32 (≈ 67 µM) | 64 (≈ 134 µM) | 128 (≈ 268 µM) | 0.25 (≈ 0.523 µM) | 0.25 (≈ 0.523 µM) | 0.12 (≈ 0.251 µM) | < 0.12 | 32 (≈ 67 µM) | 32 (≈ 67 µM) | MIC [20]: 16 µg/mL (≈ 33.5 µM); MIC [21]: 64 µg/mL (≈ 134 µM); MIC (Staphylococcus warneri): < 0.12 µg/mL
6 | NC[C@@H]1O[C@H](O[C@H]2[C@@H](O)[C@H](O[C@@H]3[C@@H](O)[C@H](N)C[C@H](N)[C@H]3O[C@H]3O[C@H](CO)[C@@H](O)[C@H](O)[C@H]3N)O[C@@H]2CO)[C@H](N)[C@@H](O)[C@@H]1O [PAROMOMYCIN] | 3 (≈ 4.87 µM) | 1 (≈ 1.62 µM) | – | – | – | – | – | – | – | – | – | – | – | – | – | – | – | – | – | – | –
